US7087430B2, “Human VNO cDNA libraries” (Pherin Pharmaceuticals, Inc., priority 2000, dated 2006)

Columns and labels:
human VNO = conditions: cited from earlier work
female human VNO cell = assay: Electrophysiological membrane currents in cultured human VNO cells; format: cell-based
Text: FIG. 1 is an electrophysiological trace showing the effects of pertussis toxin on membrane currents induced by a vomeropherin.
FIG. 1C indicates when the cells were exposed to ADO (i.e., ADO pulses).
PTX uncouples receptors from their heterotrimeric G proteins and thereby blocks signal transduction. Sensitivity to PTX is an accepted marker for pathways involving G protein-coupled receptors that decrease intracellular CAMP, regulate ion channels or activate phospholipases (i.e., couple to Gi or G0). (For a review, see Simon et al., (1991) Science 252:802–808.) We have also implicated a specific type of ion channel in the response of human VNO cells to vomeropherins. […] However, as noted above, cultured VNO cells are of limited value as a screening tool due to the need to continually isolate new cells. Thus, construction of a cDNA library was desired in order to clone and express pheromone receptors in a cell line.
As noted above, […] data (FIG. 1) indicate that cells isolated from the VNO of human volunteers respond electrophysiologically to a vomeropherin via a PTX-sensitive pathway, a hallmark of G protein-coupled receptor signaling. Thus, we anticipated that components of the pathway such as G proteins (e.g., Gi and G0), adenylyl cyclase (e.g., type 3 and 7), and various ion channels are expressed in these cells. We assayed for expression of these proteins in the VNO by screening our library for cDNA clones of the corresponding mRNAs. Knowledge of the signaling components expressed in VNO neurons is essential to express the receptors functionally in tissue culture cells for high throughput drug screening assays.

human brain = conditions: human volunteers, delivered non-specifically to the nasal cavity, no detectable odor (Sobel et al. 1999); cited from earlier work

C[C@@]12C=CC[C@H]1[C@@H]1CCC3=CC(=O)CC[C@]3(C)[C@H]1CC2 [androstadienone, androsta-4,16-dien-3-one]
physiological responses on administration to the human VNO (human VNO): induce bradycardia, bradypnea, increases in core body temperature, and other physiological responses
inward membrane currents induced by vomeropherin (female human VNO cell; 10^−7M, human VNO cell, FIG. 1A): inward currents induced

C[C@@]12C=CC[C@H]1[C@@H]1CCc3cc(O)ccc3[C@H]1CC2 [estra-1,3,5(10),16-tetraen-3-ol]
physiological responses on administration to the human VNO (human VNO): induce bradycardia, bradypnea, increases in core body temperature, and other physiological responses

CC(=O)Oc1ccc2c(c1)CC[C@@H]1[C@@H]2CC[C@]2(C)C=CC[C@@H]12 [estra-1,3,5(10),16-tetraen-3yl acetate]
physiological responses in vivo by site of application (human VNO; human subjects, VNO versus olfactory or respiratory epithelium (Monti-Bloch et al. 1994)): induces physiological responses in vivo only when applied specifically to the VNO
brain activation by fMRI (human brain): dose-dependent activation of the anterior medial thalamus, the inferior frontal gyrus, and other regions of the human brain

pertussis toxin
effect on ADO-induced inward currents (female human VNO cell; cell incubated with 100 ng/ml PTX, FIG. 1B): blocking the inward currents
effect on electrophysiological response to a vomeropherin (female human VNO cell; cultured human VNO neuroepithelial cells, FIG. 1): blocks the electrophysiological response to a vomeropherin
